Values after ≈ are worked out from the molar mass of the structure shown. Ends that are not written are not given here.
How the values were obtained:
A. baumannii KCCM 40203 = assay: microbe, parasite or virus in culture; conditions: Acinetobacter baumannii, KCCM40203, read-out: MIC at resistance induction condition, A. baumannii KCCM 40203
Procedure: (§1) To assess antimicrobial activity, the MIC50 and MIC90 were measured using broth microdilution following CLSI guidelines. […] Each experiment was performed in triplicate. Meropenem (Sigma, Darmstadt, Germany) and colistin were used as control antibiotics. Cation-adjusted Mueller–Hinton broth (CAMHB) (Becton, Dickinson and Company, Franklin Lakes, USA) with supplied calcium (50 mg/L) and magnesium (10 mg/L) was used for the CLSI-test condition. Bacteria in midlog phase and peptides were separately diluted in CAMHB. The bacteria and peptide solutions were then mixed in 96-well polyethylene plates (SPL, Gyeonggi-do, Korea) and incubated for 18 h at 37 °C. The final concentration for bacteria was 5 × 10^5 CFU/ml. […] The MIC was defined to be the lowest concentration of peptide without visible turbidity by comparing with control antibiotics with the unaided eye. […] Each experiment was performed in triplicate. MICs in albumin and acetic acid solutions were measured using the same protocol but with 0.2% bovine serum albumin (Bovogen, Keilor, Australia), 0.01% acetic acid (Merck, New Jersey, USA), and CAMHB with both calcium and magnesium. In addition, MICs used in the antibiotic resistance acquisition test, the outer–inner membrane permeation test, and the transmembrane potential test and for FE-SEM were individually determined. The final bacterial concentrations used were as follows: for resistance acquisition, optical density (OD) 0.01; for outer–inner membrane permeability assays (LB), OD 0.1; for the transmembrane potential test, 1 × 10^8 CFU/ml (OD 0.171); […]. Inhibitory activity unidentifiable by direct observation was determined by counting the CFUs. Each experiment was performed at least twice.
A. baumannii (KCCM 40203) and S. aureus (KCTC 1621) were selected as drug-sensitive bacteria. Mutation-susceptible tetracycline (an antibiotic that targets ribosomes) (Sigma, Darmstadt, Germany) and ofloxacin (an antibiotic that targets DNA gyrase) (Sigma, Darmstadt, Germany), mutation-resistant colistin (an antibiotic that targets lipopolysaccharide) (Sigma, Darmstadt, Germany) and vancomycin (an antibiotic that targets peptidoglycan pentapeptide) (Sigma, Darmstadt, Germany) were used as control antibiotics. The MIC for each antibiotic against bacteria (at OD 0.01) was measured. […] The MIC for each passage was confirmed by additional broth microdilutions under CLSI guidelines. Resistance acquisition was induced for 30 days (30 passages), and each MIC value was confirmed by an independent MIC test against bacteria at each passage.

S. aureus KCTC 1621 = assay: microbe, parasite or virus in culture; format: cell-based; conditions: Staphylococcus aureus, KCTC1621, read-out: MIC at resistance induction condition, S. aureus KCTC 1621
Procedure: as §1
A. baumannii (KCCM 40203) and S. aureus (KCTC 1621) were selected as drug-sensitive bacteria. […] The MIC for each antibiotic against bacteria (at OD 0.01) was measured. […]

MDR A. baumannii = assay: microbe, parasite or virus in culture; conditions: Acinetobacter baumannii, ATCCBAA1605, 18 h, read-out: Minimum inhibitory concentrations, MDR A. baumannii
How it was run: (§2)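 CLSI broth microdilution used CAMHB supplemented with Ca (50 mg/L) and Mg (10 mg/L); runs in triplicate against meropenem/colistin controls.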

MDR E. faecalis = assay: microbe, parasite or virus in culture; conditions: Enterococcus faecalis, ATCC51575, 18 h, read-out: Minimum inhibitory concentrations, MDR E. faecalis
How it was run: as §2

MDR P. aeruginosa = assay: microbe, parasite or virus in culture; conditions: Pseudomonas aeruginosa, CCARM2180, 18 h, read-out: Minimum inhibitory concentrations, MDR P. aeruginosa
How it was run: as §2

MDR S. aureus = assay: microbe, parasite or virus in culture; conditions: Staphylococcus aureus, KCCM40510, 18 h, read-out: Minimum inhibitory concentrations, MDR S. aureus
How it was run: as §2

K. pneumonia strains = assay: microbe, parasite or virus in culture; conditions: Klebsiella pneumoniae, read-out: MIC, K. pneumonia NCCP 16125
Procedure: Twenty-six A. baumannii strains were clinically isolated and gifted to us by the Kyungpook National University School of Medicine. One A. baumannii strain (ATCC 17978) was purchased and gifted to us by Kyungpook National University School of Medicine. One A. baumannii strain and 10 K. pneumoniae strains (NCCP) were purchased from the National Culture Collection for Pathogens.
as §1

E. aerogenes NCCP 16285 = assay: microbe, parasite or virus in culture; conditions: Klebsiella aerogenes, NCCP16285, read-out: MIC, E. aerogenes NCCP 16285
Procedure: as §1

P. aeruginosa = tested on: P. aeruginosa; design: method as in 7 sources, one per row (each row's own in cited_ref): ref 39 (a number printed in a supplementary file, which may have a reference list of its own: not looked up in the article's list) ||| ref 40 (a number printed in a supplementary file, which may have a reference list of its own: not looked up in the article's list) ||| ref 41 (a number printed in a supplementary file, which may have a reference list of its own: not looked up in the article's list) ||| ref 42 (a number printed in a supplementary file, which may have a reference list of its own: not looked up in the article's list) ||| ref 44 (a number printed in a supplementary file, which may have a reference list of its own: not looked up in the article's list) ||| ...; conditions: 1 × 10^5 ~ 3.5 × 10^5 cfu/ml, MHB; cited from earlier work
S. aureus = tested on: S. aureus; design: method as in 7 sources, one per row (each row's own in cited_ref): ref 39 (a number printed in a supplementary file, which may have a reference list of its own: not looked up in the article's list) ||| ref 40 (a number printed in a supplementary file, which may have a reference list of its own: not looked up in the article's list) ||| ref 41 (a number printed in a supplementary file, which may have a reference list of its own: not looked up in the article's list) ||| ref 42 (a number printed in a supplementary file, which may have a reference list of its own: not looked up in the article's list) ||| ref 43 (a number printed in a supplementary file, which may have a reference list of its own: not looked up in the article's list) ||| ...; conditions: 1 × 10^5 ~ 3.5 × 10^5 cfu/ml, MHB; cited from earlier work

Compound | MIC (A. baumannii KCCM 40203) [µM] | MIC (S. aureus KCTC 1621) [µM] | MIC (Strain 1), P. aeruginosa H103 (P. aeruginosa) [µM] | MIC (Strain 2), S. aureus ATCC 25923 (S. aureus) [µM] | further results
CC1COc2c(N3CCN(C)CC3)c(F)cc3c(=O)c(C(=O)O)cn1c23 (centres unmarked) [Ofloxacin] | 1.25 (≈ 0.452 µg/mL) | 1.25 (≈ 0.452 µg/mL) | – | – | –
CN(C)[C@@H]1C(O)=C(C(N)=O)C(=O)[C@@]2(O)C(O)=C3C(=O)c4c(O)cccc4[C@@](C)(O)[C@H]3C[C@@H]12 [Tetracycline] | 1.25 (≈ 0.556 µg/mL) | 1.25 (≈ 0.556 µg/mL) | – | – | –
CN[C@H](CC(C)C)C(=O)N[C@H]1C(=O)N[C@@H](CC(N)=O)C(=O)N[C@H]2C(=O)N[C@H]3C(=O)N[C@H](C(=O)N[C@H](C(=O)O)c4cc(O)cc(O)c4-c4cc3ccc4O)[C@H](O)c3ccc(c(Cl)c3)Oc3cc2cc(c3O[C@@H]2O[C@H](CO)[C@@H](O)[C@H](O)[C@H]2O[C@H]2C[C@](C)(N)[C@H](O)[C@H](C)O2)Oc2ccc(cc2Cl)[C@H]1O [Vancomycin, reference compound] | 1.25 (≈ 1.81 µg/mL) | 1.25 (≈ 1.81 µg/mL) | – | – | MIC (MDR A. baumannii): > 5 µM; MIC (MDR E. faecalis): > 20 µM; MIC (MDR P. aeruginosa): > 5 µM; MIC (MDR S. aureus): 1.25 µM (≈ 1.81 µg/mL); MIC (K. pneumonia strains): > 5 µM; MIC (E. aerogenes NCCP 16285): > 5 µM
KFKWWRMLI (not fully specified (C-terminus)) | – | – | 2.6 | 1.2 | –
KRRWRIWLV (not fully specified (C-terminus)) | – | – | 3.0 | 1.5 | –
RLWWKIWLK (not fully specified (C-terminus)) | – | – | 22.5 | 1.4 | –
WKWLKKWIK (not fully specified (C-terminus)) | – | – | 2.9 | 0.7 | –

Source: PMC9643456, “Matching amino acids membrane preference profile to improve activity of antimicrobial peptides” (Communications Biology, 2022)
